Measurements as given in patent US20260072027A1, “Peptides And Method” (Queen Mary University of London, priority 2022, published 2026).
Where no end group is shown, it is not given here. [ ]: non-standard residue; d: D form. Dopa = N[C@@H](Cc1ccc(O)c(O)c1)C(=O)O

Key:
CD8+ T-cells (PBMCs) = assay: In vitro peptide stimulation and T-cell proliferation assay, CD8+; assay type: cell-based, human
Excerpt: (§1) In vitro peptide stimulation and T-cell proliferation assay. Peripheral blood mononuclear cells (PBMCs) were freshly isolated from type 1 diabetes and healthy individuals using Ficoll-Hypaque density gradient centrifugation. PBMCs were labelled with the fluorescent dye CellTrace Violet (Invitrogen, Thermo Fisher Scientific) and cultured (2×10^5 cells/well) in round-bottom 96-well plates (Falcon, Becton Dickinson) with RPMI-1640 medium (Gibco, Thermo Fisher Scientific) supplemented with 5% autologous plasma in the presence or not of insulin peptides (20 μg/ml); PPD (10 μg/ml) and anti-CD3 (0.1 μg/ml; clone OKT3) were used as positive control. Two scrambled peptides: […] (SEQ ID NO: 17), […] (SEQ ID NO: 18), and the Exendin 9-39 fragment were used as negative controls. After 7 days, PBMCs were stained with PE-Cy7 anti-CD8 (clone RPA-T8, BD Pharmingen) and FITC anti-CD3 (clone UCHT1, BD Pharmingen). Samples were analysed by using a FACSCanto II (BD Bioscience) to evaluate T-cell proliferation measured as CellTrace Violet dilution. Cytofluorimetric analyses were performed using FlowJo Software (FlowJo, LLC). The results were given as stimulation index (SI), calculated as percentage of stimulated T-cell subset proliferation/percentage of unstimulated T-cell subset proliferation. Assay for detection of peptide specific T cells subsets was done as previously described (detailed in ESM methods, Assay for detection of peptide specific T cells)
(§2) T-cell stimulation with oxPTM-INSPs. To evaluate the immune cell response against the oxPTM-INSPs, we performed CD4+ and CD8+ T cells proliferation experiments using freshly isolated PBMCs (Study cohort 2, Table 1). Response was calculated as stimulatory index (SI) over unstimulated T-cells.

CD4+ T-cells (PBMCs) = assay: In vitro peptide stimulation and T-cell proliferation assay, CD4+; assay type: cell-based, human
Excerpt: as §1, §2

serum IgG autoantibodies = assay: ELISA for autoantibody detection: serum antibody binding to native and oxPTM insulin peptides; parameters: species or system human; conditions: for % binders, Healthy controls / Mean ± SEM (absorbance, OD), Healthy controls / % binders, Type 1 diabetes: Study cohort 1; for % binders, Type 1 diabetes: cut-off = mean of healthy controls to Nt-INSP plus 3 SEM; for Mean ± SEM (absorbance, OD), Type 1 diabetes: Study cohort 1 sera
Description: ELISA for autoantibody detection. The ELISA analysis of Nt-INS and oxPTM-INS autoantibodies was performed as previously described [18](detailed in ESM methods, ELISA assay for antibody detection).
Statistical analyses. Statistical analyses were performed using Prism Software 9.0 (GraphPad, San Diego, CA, USA). Cut-off points of positivity (binders) in the antibody ELISA for each peptide were defined by the mean of optical absorbance (O.D) of healthy controls to the corresponding Nt-INSP plus three times the standard error of the mean (SEM). Specificity and sensitivity were evaluated by receiver operating characteristic (ROC) curve analysis. Area under the curve (AUC) is reported as absolute value and was tested for equality according to DeLong et al. Differences in antibody levels and T-cell stimulation indices (SI) between groups were tested by the One way ANOVA or Student's t-tests as appropriate. Correlation analyses were tested by Pearson or Spearman's test, as appropriate. Categorical analyses were performed by Chi-square or McNemar's tests, as appropriate. For each set of experiments, p values were adjusted for multiple comparison using the Holm-Sidak's test. Hierarchical cluster and Principal Component Analysis (PCA) was done using Clustvis software (https://biit.cs.ut.ee/clustvis/) and Prism Software 9.0, respectively.
Antibody reactivity of type 1 diabetes serum against the candidate oxPTM-INSP. Identified peptide candidates were synthesised and exposed to either HOCl or ^●OH to generate oxPTM-INSPs that were first assessed by TOF-MS/ES+TIC to confirm modification (FIG. 17). Antibody response against native INSPs (Nt-INSPs) and oxPTM-INSPs was evaluated by ELISA using sera from Study cohort 1.
ESM Methods ELISA assay for antibody detection. The ELISA analysis of native (Nt-INS) and modified insulin (oxPTM-INS) was performed as previously described. Briefly, the ELISA plate was coated overnight at 4° C. with 100 μl per well of modified or native insulin in 0.05 M carbonate/bicarbonate buffer pH 9.6 at 10 μg/ml. The next day, the plates were washed 3 times with 0.1% Tween PBS, followed by blocking for 2 hours at room temperature with 200 μl per well of 5% BSA in 0.1% Tween PBS. After washing, 100 μl of 1:200-diluted serum samples in 5% BSA-0.1% Tween PBS were added for additional 2 hours incubation. ELISA plates were then washed 3 times with 0.1% Tween PBS followed by probing with anti-human IgG horse radish peroxidase conjugated (HRP, Sigma) at 1:1,000 dilution in 5% BSA-0.1% Tween PBS for another 1.5 hours incubation. The ELISA plates were washed, and 100 μg/ml TMB substrate in 0.1M sodium acetate pH 6.0 plus 2 μl/10 ml of H2O2, were added. Subsequently, the reaction was stopped with 20% v/v sulphuric acid. The optical density (O.D.) was measured at 450 nm using a GENios plate reader and Magellan software (TECAN, Dorset, UK).

Row | Substance | CD8+ T-cell response, subjects with SI > 1 (%) (CD8+ T-cells (PBMCs); Controls (N = 11)) | CD8+ T-cell response, subjects with SI > 3 (%) (CD8+ T-cells (PBMCs); Controls (N = 11)) | CD8+ T-cell response, subjects with SI > 5 (%) (CD8+ T-cells (PBMCs); Controls (N = 11)) | CD8+ T-cell response, subjects with SI > 10 (%) (CD8+ T-cells (PBMCs); Controls (N = 11)) | CD8+ T-cell response, subjects with SI > 1 (%) (CD8+ T-cells (PBMCs); Type 1 diabetes (N = 18)) | CD8+ T-cell response, subjects with SI > 3 (%) (CD8+ T-cells (PBMCs); Type 1 diabetes (N = 18)) | CD8+ T-cell response, subjects with SI > 5 (%) (CD8+ T-cells (PBMCs); Type 1 diabetes (N = 18)) | CD8+ T-cell response, subjects with SI > 10 (%) (CD8+ T-cells (PBMCs); Type 1 diabetes (N = 18)) | CD4+ T-cell response, subjects with SI > 1 (%) (CD4+ T-cells (PBMCs); Controls (N = 11)) | CD4+ T-cell response, subjects with SI > 3 (%) (CD4+ T-cells (PBMCs); Controls (N = 11)) | CD4+ T-cell response, subjects with SI > 5 (%) (CD4+ T-cells (PBMCs); Controls (N = 11)) | CD4+ T-cell response, subjects with SI > 10 (%) (CD4+ T-cells (PBMCs); Controls (N = 11)) | CD4+ T-cell response, subjects with SI > 1 (%) (CD4+ T-cells (PBMCs); Type 1 diabetes (N = 18)) | CD4+ T-cell response, subjects with SI > 3 (%) (CD4+ T-cells (PBMCs); Type 1 diabetes (N = 18)) | CD4+ T-cell response, subjects with SI > 5 (%) (CD4+ T-cells (PBMCs); Type 1 diabetes (N = 18)) | CD4+ T-cell response, subjects with SI > 10 (%) (CD4+ T-cells (PBMCs); Type 1 diabetes (N = 18)) | % binders, Healthy controls (serum IgG autoantibodies; in house modifications) [%] | Mean ± SEM (absorbance, OD), Healthy controls (serum IgG autoantibodies; in house modifications) | % binders, Type 1 diabetes (serum IgG autoantibodies; in house modifications) [%] | Mean ± SEM (absorbance, OD), Type 1 diabetes (serum IgG autoantibodies; in house modifications) | further results
1 | ERGFFYTPKTR (Ac-ERGFFYTPKTR) [INSP-6 with C-terminal arginine] | (27.3%) | (0.0%) | (0.0%) | (0.0%) | (44.4%) | (16.7%) | (16.7%) | (16.7%) | (36.4%) | (0.0%) | (0.0%) | (0.0%) | (55.6%) | (27.8%) | (21.1%) | (11.1%) |  |  |  |  | 
2 | ERGYY-DOPA-TPKT (ERGYY[Dopa]TPKT) [in silico designed oxPTM-INSP-6 derivative] | (18.2%) | (9.10%) | (0.0%) | (0.0%) | (27.8%) | (0.0%) | (0.0%) | (0.0%) | (27.3%) | (0.0%) | (0.0%) | (0.0%) | (50.0%) | (5.6%) | (5.2%) | (5.6%) |  |  |  |  | % binders, Healthy controls (serum IgG autoantibodies; in silico modifications): 30%; Mean ± SEM (absorbance, OD), Healthy controls (serum IgG autoantibodies; in silico modifications): 0.357 ± 0.030; % binders, Type 1 diabetes (serum IgG autoantibodies; in silico modifications): 100%; Mean ± SEM (absorbance, OD), Type 1 diabetes (serum IgG autoantibodies; in silico modifications): 0.536 ± 0.021; type 1 diabetes binders (IgG autoantibody reactivity) (serum IgG autoantibodies; Study cohort 2, N = 18): 55.5%
3 | ERGYYYTPKT (Ac-ERGYYYTPKT) [in silico designed oxPTM-INSP-6 derivative] | (27.3%) | (18.2%) | (18.2%) | (9.1%) | (22.2%) | (11.1%) | (11.1%) | (5.6%) | (36.4%) | (18.2%) | (9.1%) | (0.0%) | (50.0%) | (22.2%) | (0.0%) | (0.0%) |  |  |  |  | % binders, Healthy controls (serum IgG autoantibodies; in silico modifications): 25%; Mean ± SEM (absorbance, OD), Healthy controls (serum IgG autoantibodies; in silico modifications): 0.351 ± 0.044; % binders, Type 1 diabetes (serum IgG autoantibodies; in silico modifications): 100%; Mean ± SEM (absorbance, OD), Type 1 diabetes (serum IgG autoantibodies; in silico modifications): 0.556 ± 0.031
4 | FVNQHLC [INSP-5, insulin B:1-7 peptide] |  |  |  |  |  |  |  |  |  |  |  |  |  |  |  |  |  |  |  |  | Antibody reactivity of serum samples (in words) (serum IgG autoantibodies; ELISA): No significant reactivity
5 | INSP-3 oxPTM-HOCI: INSP-3 peptide oxidised in house by HOCl (SLYQLENYCN; not fully specified (N-terminus); also: oxidised by HOCl, modified residues not defined) |  |  |  |  |  |  |  |  |  |  |  |  |  |  |  |  | 40 | 0.452 ± 0.048 | 53 | 0.473 ± 0.037 | 
6 | INSP-3 oxPTM-•OH: INSP-3 peptide oxidised in house by hydroxyl radical (SLYQLENYCN; not fully specified (N-terminus); also: oxidised by hydroxyl radical, modified residues not defined) |  |  |  |  |  |  |  |  |  |  |  |  |  |  |  |  | 86 | 0.617 ± 0.042 | 86 | 0.667 ± 0.044 | Mean ± SEM (absorbance, OD), Type 1 diabetes (serum IgG autoantibodies; in house modifications, listed as ●OH-modified oxPTM-INSP-3): 0.667±0.044
7 | INSP-4 oxPTM-HOCI: INSP-4 peptide oxidised in house by HOCl (LVEALYLVCGERGFFYTPKT; also: oxidised by HOCl, modified residues not defined) |  |  |  |  |  |  |  |  |  |  |  |  |  |  |  |  | 27 | 0.296 ± 0.022 | 66 | 0.563 ± 0.053 | Mean ± SEM (absorbance, OD), Type 1 diabetes (serum IgG autoantibodies; in house modifications, listed as HOCl-modified oxPTM-INSP-4): 0.563±0.053
